Laboratory results reported in ChEMBL document CHEMBL1201862, “PubChem BioAssay data set” (2004).
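96-well plates; 48 h exposure; 5 concentrations. Endpoints by linear interpolation between flanking doses. Not reached: highest tested concentration assigned. The concentration for 50% growth inhibition is given as GI50.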 Active and inactive are the calls of the source. No stated cut-off is given here; in the data, active = GI50 up to about 1.1 µM and inactive = higher.

Experiments:
Test in all cases: NCI anticancer screen, dose series, 48 h
786-0 = tested on: 786-0
A498 = tested on: A498
A549 = tested on: A549
ACHN = tested on: ACHN
BT-549 = tested on: BT-549
CAKI-1 = tested on: CAKI-1
CCRF-CEM = tested on: CCRF-CEM
COLO 205 = tested on: COLO 205
DU-145 = tested on: DU-145
EKVX = tested on: EKVX
HCC 2998 = tested on: HCC 2998
HCT-116 = tested on: HCT-116
HCT-15 = tested on: HCT-15
HL-60 = tested on: HL-60
HOP-62 = tested on: HOP-62
HOP-92 = tested on: HOP-92
HT-29 = tested on: HT-29
Hs-578T = tested on: Hs-578T
IGROV-1 = tested on: IGROV-1
K562 = tested on: K562
KM12 = tested on: KM12
M14 = tested on: M14
MCF7 = tested on: MCF7
MDA-MB-231 = tested on: MDA-MB-231
MDA-MB-435 = tested on: MDA-MB-435
MDA-N = tested on: MDA-N
MOLT-4 = tested on: MOLT-4
Malme-3M = tested on: Malme-3M
NCI-H226 = tested on: NCI-H226
NCI-H23 = tested on: NCI-H23
NCI-H460 = tested on: NCI-H460
NCI-H522 = tested on: NCI-H522
NCI/ADR-RES = tested on: NCI/ADR-RES
OVCAR-3 = tested on: OVCAR-3
OVCAR-4 = tested on: OVCAR-4
OVCAR-5 = tested on: OVCAR-5
OVCAR-8 = tested on: OVCAR-8
PC-3 = tested on: PC-3
RPMI-8226 = tested on: RPMI-8226
RXF 393 = tested on: RXF 393
SF-268 = tested on: SF-268
SF-295 = tested on: SF-295
SF-539 = tested on: SF-539
SK-MEL-28 = tested on: SK-MEL-28
SK-MEL-2 = tested on: SK-MEL-2
SK-MEL-5 = tested on: SK-MEL-5
SK-OV-3 = tested on: SK-OV-3
SN12C = tested on: SN12C
SNB-19 = tested on: SNB-19
SNB-75 = tested on: SNB-75
SR = tested on: SR
T47D = tested on: T47D
TK-10 = tested on: TK-10
U-251 = tested on: U-251
UACC-257 = tested on: UACC-257
UACC-62 = tested on: UACC-62
UO-31 = tested on: UO-31
LOX IMVI = tested on: LOX IMVI
SW-620 = tested on: SW-620

`CCCNC(=O)CCC(C)[C@H]1CCC2C3C(C[C@H](OC(C)=O)[C@@]21C)[C@@]1(C)CCC2(C[C@H]1C[C@H]3OC(C)=O)OOC1(CCC(C)CC1)OO2` (some centres undefined) was tested, and the GI50 (786-0) was 16.2 µM (inactive), the GI50 (A498) was 22.2 µM (inactive) and the GI50 (A549) was 2.17 µM (inactive). For the same compound, the GI50 (ACHN) was 2.14 µM (inactive), the GI50 (BT-549) was 27.1 µM (inactive) and the GI50 (CAKI-1) was 2.28 µM (inactive). The GI50 (CCRF-CEM) was 0.0376 µM (active), the GI50 (COLO 205) was 14.8 µM (inactive) and the GI50 (DU-145) was 9.31 µM (inactive). The GI50 (EKVX) was 13.6 µM (inactive), the GI50 (HCC 2998) was 40.1 µM (inactive) and the GI50 (HCT-116) was 32.1 µM (inactive). For the same compound, the GI50 (HCT-15) was 35.3 µM, the GI50 (HL-60) was 13.1 µM (inactive) and the GI50 (HOP-62) was 1.72 µM (inactive). For the same compound, the GI50 (HOP-92) was 0.0447 µM (active), the GI50 (HT-29) was 36.9 µM (inactive) and the GI50 (Hs-578T) was 31 µM (inactive). For the same compound, the GI50 (IGROV-1) was 1.87 µM (inactive), the GI50 (K562) was 33.2 µM (inactive) and the GI50 (KM12) was 5.52 µM (inactive). For the same compound, the GI50 (M14) was 26.4 µM (inactive), the GI50 (MCF7) was 34.7 µM (inactive) and the GI50 (MDA-MB-231) was 29.1 µM (inactive). For the same compound, the GI50 (MDA-MB-435) was 18.9 µM (inactive), the GI50 (MDA-N) was 14.3 µM (inactive) and the GI50 (MOLT-4) was 37.7 µM (inactive). The GI50 (Malme-3M) was 18.6 µM (inactive), the GI50 (NCI-H226) was 55.3 µM (inactive) and the GI50 (NCI-H23) was 4.88 µM (inactive). For the same compound, the GI50 (NCI-H460) was 23.5 µM (inactive), the GI50 (NCI-H522) was 13 µM (inactive) and the GI50 (NCI/ADR-RES) was 16.6 µM (inactive). The GI50 (OVCAR-3) was 4.78 µM (inactive), the GI50 (OVCAR-4) was 15.8 µM (inactive) and the GI50 (OVCAR-5) was 29.2 µM (inactive). The GI50 (OVCAR-8) was 19.5 µM (inactive), the GI50 (PC-3) was 19.8 µM (inactive) and the GI50 (RPMI-8226) was 3.65 µM (inactive). For the same compound, the GI50 (RXF 393) was 50 µM (inactive), the GI50 (SF-268) was 20 µM (inactive) and the GI50 (SF-295) was 26.7 µM (inactive). The GI50 (SF-539) was 16.7 µM (inactive), the GI50 (SK-MEL-28) was 89.7 µM (inactive) and the GI50 (SK-MEL-2) was 19.5 µM (inactive). For the same compound, the GI50 (SK-MEL-5) was 14.6 µM (inactive), the GI50 (SK-OV-3) was 60.5 µM (inactive) and the GI50 (SN12C) was 43.6 µM (inactive). The GI50 (SNB-19) was 80.2 µM (inactive), the GI50 (SNB-75) was 23 µM (inactive) and the GI50 (SR) was 9.79 µM (inactive). For the same compound, the GI50 (T47D) was 15.9 µM (inactive), the GI50 (TK-10) was 28.7 µM (inactive) and the GI50 (U-251) was 14.8 µM (inactive). The GI50 (UACC-257) was 23.2 µM (inactive), the GI50 (UACC-62) was 43.5 µM (inactive) and the GI50 (UO-31) was 0.959 µM (active).

`O=C(N[C@H]1CCC[C@H]1C(=O)Nc1ccc(C(F)(F)F)cc1)OCc1ccccc1` was tested, and the GI50 (786-0) was > 100 µM (inactive), the GI50 (A498) was > 100 µM (inactive) and the GI50 (A549) was > 100 µM (inactive). For the same compound, the GI50 (ACHN) was > 100 µM (inactive), the GI50 (BT-549) was > 100 µM (inactive) and the GI50 (CAKI-1) was > 100 µM (inactive). The GI50 (CCRF-CEM) was > 100 µM (inactive), the GI50 (COLO 205) was > 100 µM (inactive) and the GI50 (DU-145) was > 100 µM (inactive). For the same compound, the GI50 (EKVX) was > 100 µM (inactive), the GI50 (HCC 2998) was > 100 µM (inactive) and the GI50 (HCT-116) was > 100 µM (inactive). The GI50 (HCT-15) was over 100 µM, the GI50 (HL-60) was > 100 µM (inactive) and the GI50 (HOP-62) was > 100 µM (inactive). For the same compound, the GI50 (HOP-92) was > 100 µM (inactive), the GI50 (HT-29) was > 100 µM (inactive) and the GI50 (Hs-578T) was 88.5 µM (inactive). The GI50 (IGROV-1) was > 100 µM (inactive), the GI50 (K562) was > 100 µM (inactive) and the GI50 (KM12) was > 100 µM (inactive). The GI50 (LOX IMVI) was > 100 µM (inactive), the GI50 (M14) was > 100 µM (inactive) and the GI50 (MCF7) was > 100 µM (inactive). The GI50 (MDA-MB-231) was > 100 µM (inactive), the GI50 (MDA-MB-435) was > 100 µM (inactive) and the GI50 (MDA-N) was > 100 µM (inactive). The GI50 (MOLT-4) was > 100 µM (inactive), the GI50 (Malme-3M) was > 100 µM (inactive) and the GI50 (NCI-H226) was 65.3 µM (inactive). For the same compound, the GI50 (NCI-H23) was > 100 µM (inactive), the GI50 (NCI-H460) was > 100 µM (inactive) and the GI50 (NCI-H522) was 54.2 µM (inactive). For the same compound, the GI50 (NCI/ADR-RES) was > 100 µM (inactive), the GI50 (OVCAR-3) was > 100 µM (inactive) and the GI50 (OVCAR-4) was > 100 µM (inactive). The GI50 (OVCAR-5) was > 100 µM (inactive), the GI50 (OVCAR-8) was > 100 µM (inactive) and the GI50 (PC-3) was > 100 µM (inactive). The GI50 (RPMI-8226) was > 100 µM (inactive), the GI50 (RXF 393) was > 100 µM (inactive) and the GI50 (SF-268) was > 100 µM (inactive). The GI50 (SF-295) was > 100 µM (inactive), the GI50 (SF-539) was > 100 µM (inactive) and the GI50 (SK-MEL-28) was > 100 µM (inactive). The GI50 (SK-MEL-2) was > 100 µM (inactive), the GI50 (SK-MEL-5) was > 100 µM (inactive) and the GI50 (SK-OV-3) was > 100 µM (inactive). For the same compound, the GI50 (SN12C) was > 100 µM (inactive), the GI50 (SNB-19) was > 100 µM (inactive) and the GI50 (SR) was > 100 µM (inactive). For the same compound, the GI50 (SW-620) was > 100 µM (inactive), the GI50 (T47D) was > 100 µM (inactive) and the GI50 (TK-10) was > 100 µM (inactive). For the same compound, the GI50 (U-251) was > 100 µM (inactive), the GI50 (UACC-257) was > 100 µM (inactive) and the GI50 (UACC-62) was > 100 µM (inactive). For the same compound, the GI50 (UO-31) was > 100 µM (inactive).

For `c1ccc(COc2ncccc2C2SCCCS2)cc1`, the GI50 (786-0) was > 100 µM (inactive), the GI50 (A498) was > 100 µM (inactive) and the GI50 (A549) was > 100 µM (inactive). For the same compound, the GI50 (ACHN) was > 100 µM (inactive), the GI50 (BT-549) was > 100 µM (inactive) and the GI50 (CAKI-1) was > 100 µM (inactive). For the same compound, the GI50 (CCRF-CEM) was > 100 µM (inactive), the GI50 (COLO 205) was > 100 µM (inactive) and the GI50 (DU-145) was > 100 µM (inactive). For the same compound, the GI50 (EKVX) was > 100 µM (inactive), the GI50 (HCC 2998) was > 100 µM (inactive) and the GI50 (HCT-116) was > 100 µM (inactive). The GI50 (HCT-15) was over 100 µM, the GI50 (HL-60) was > 10 µM (inactive) and the GI50 (HOP-62) was > 100 µM (inactive). The GI50 (HOP-92) was > 100 µM (inactive), the GI50 (Hs-578T) was > 100 µM (inactive) and the GI50 (IGROV-1) was > 100 µM (inactive). The GI50 (K562) was 96.4 µM (inactive), the GI50 (KM12) was > 100 µM (inactive) and the GI50 (LOX IMVI) was 82.4 µM (inactive). For the same compound, the GI50 (M14) was > 100 µM (inactive), the GI50 (MCF7) was 84.3 µM (inactive) and the GI50 (MDA-MB-231) was > 100 µM (inactive). For the same compound, the GI50 (MDA-MB-435) was > 100 µM (inactive), the GI50 (MDA-N) was > 100 µM (inactive) and the GI50 (Malme-3M) was > 100 µM (inactive). For the same compound, the GI50 (NCI-H226) was > 100 µM (inactive), the GI50 (NCI-H23) was > 100 µM (inactive) and the GI50 (NCI-H522) was > 100 µM (inactive). The GI50 (NCI/ADR-RES) was > 100 µM (inactive), the GI50 (OVCAR-3) was > 100 µM (inactive) and the GI50 (OVCAR-4) was > 100 µM (inactive). The GI50 (OVCAR-5) was > 100 µM (inactive), the GI50 (OVCAR-8) was > 100 µM (inactive) and the GI50 (PC-3) was > 100 µM (inactive). The GI50 (RPMI-8226) was > 100 µM (inactive), the GI50 (RXF 393) was 66.8 µM (inactive) and the GI50 (SF-268) was > 100 µM (inactive). For the same compound, the GI50 (SF-295) was > 100 µM (inactive), the GI50 (SF-539) was 67.3 µM (inactive) and the GI50 (SK-MEL-28) was > 100 µM (inactive). The GI50 (SK-MEL-2) was > 100 µM (inactive), the GI50 (SK-MEL-5) was > 100 µM (inactive) and the GI50 (SN12C) was > 100 µM (inactive). For the same compound, the GI50 (SNB-19) was > 100 µM (inactive), the GI50 (SR) was 70 µM (inactive) and the GI50 (SW-620) was > 100 µM (inactive). The GI50 (T47D) was 32.9 µM (inactive), the GI50 (TK-10) was > 100 µM (inactive) and the GI50 (U-251) was > 100 µM (inactive). The GI50 (UACC-257) was > 100 µM (inactive), the GI50 (UACC-62) was > 100 µM (inactive) and the GI50 (UO-31) was > 100 µM (inactive).
